How the values were obtained:
Experiment in all cases: Cell growth inhibition assay (CellTiter-Glo cell viability, 7 days)
Assay type in all cases: cell-based
DLD-1 BRCA2(−/−) = conditions: Homo sapiens, 168 h, DLD-1 BRCA2(-/-) cells
DLD-1 parental = conditions: Homo sapiens, 168 h, DLD-1 parental cells
Text: Example A: Cell Growth Inhibition Assay
The objective of this study is to evaluate the effect of invention compounds on cell proliferation through the cell viability assay in DLD-1 BRCA2(−/−) and parental isogenic pair and MDA-MB-436 (mutated BRCA1) cell lines. The CellTiter-Glo (CTG) based cell viability assay is designed to determine the number of viable cells in the culture because of compound effect, by quantifying ATP, which indicates the presence of metabolically active cells.
DLD-1 BRCA2(−/−) and parental isogenic pair were cultured in RPMI 1640 supplemented with 10% fetal bovine serum (FBS), and MDA-MB-436 cells were cultured in DMEM supplemented with 10% FBS. Both are culture at 37° C. with 5% CO2. Invention compounds were distributed to the 384 well plate (Corning, 3764) using Echo acoustic liquid handler to form a 1:3 serially diluted final concentration with top dose of 10 or 30 μM. The cells were seeded into the plate in the density of 50 cells/well (DLD-1 parental), 200 cells/well (DLD-1 BRCA2−/−), or 500 cells/well (MDA-MB-436). After a short spun, the cells were cultured in a well moisturized incubator at 37° C. with 5% CO2 for 7 days without disturbance. The cell viability was measured by CellTiter Glo 2.0 assay kit (Promega, G9243), and growth inhibition rate was calculated and plotted against final compound concentration, and the data were fitted in Xfit to generate IC50.

[1] = tested on: MDA-MB-436 (mutated BRCA1) cell lines; conditions: Homo sapiens, 168 h, MDA-MB-436 cells

Structure (SMILES)	EC50 (DLD-1 BRCA2(−/−)) [µM]	EC50 [1] [µM]	EC50 (DLD-1 parental) [µM]
CCc1cc2ncc(CN3CCN(c4ccc(C(=O)NC)nc4)[C@@H](C)C3)cc2[nH]c1=O (racemic) [Example 27]	0.0041	0.001	32
CCc1cc2ncc(CN3CCN(c4ccc(C(=O)NC)nc4)[C@H]4C[C@H]43)cc2[nH]c1=O (single isomer, unassigned) [Example 3B]	0.0032	0.0015	29
CCc1cc2ncc(CN3CCN(c4ccc(C(=O)NC)nc4C#N)[C@H](C)C3)cc2[nH]c1=O [Example 4, 6-cyano-5-[(2R)-4-[(7-ethyl-6-oxo-5H-1,5-naphthyridin-3-yl)methyl]-2-methylpiperazin-1-yl]-N-methylpyridine-2-carboxamide]	0.0016	0.00069	> 30
CCc1cc2ncc(CN3CCN(c4ccc(C(=O)NC)nc4C4CC4)CC3)cc2[nH]c1=O [Example 6, 6-cyclopropyl-5-(4-((7-ethyl-6-oxo-5,6-dihydro-1,5-naphthyridin-3-yl)methyl)piperazin-1-yl)-N-methylpicolinamide]	0.0028	0.0017	11
CCc1cc2ncc(CN3CC=C(c4ccc(C(=O)NC)nc4)CC3)cc2[nH]c1=O [Example 8, 1′-((7-ethyl-6-oxo-5,6-dihydro-1,5-naphthyridin-3-yl)methyl)-N-methyl-1′,2′,3′,6′-tetrahydro-[3,4′-bipyridine]-6-carboxamide]	0.001	0.00025	89
N#Cc1ncccc1N1CCN(Cc2cnc3cc(C4CC4)c(=O)[nH]c3c2)CC1 [Example 129]	0.015	0.007	–
CCc1cc2ncc(CN3CCN(c4ccccc4C#N)CC3)cc2[nH]c1=O [Example 130]	0.0033	0.0023	–
CNC(=O)c1ccc(N2CCN(Cc3cnc4c(C)c(C(F)F)c(=O)[nH]c4c3)CC2)cn1 [Example 133]	0.001	0.00087	–
CCc1cc2ncc(CN3CCN(c4ccc(C(=O)NC5CC5)c(F)c4)CC3)cc2[nH]c1=O [Example 134]	0.0024	0.0014	–
C#Cc1cc2ncc(CN3CCN(c4ccc(C(=O)NC)nc4)CC3)cc2[nH]c1=O [Example 135]	0.015	0.024	–
Cc1cnc(N2CCN(Cc3cnc4cc(C5CC5)c(=O)[nH]c4c3)CC2)n1C [Example 136]	0.002	0.00093	–
CCNC(=O)c1ccc(N2CCN(Cc3cnc4cc(C5CC5)c(=O)[nH]c4c3)CC2)cn1 [Example 137]	0.0021	0.0013	–
CNC(=O)c1ccc(N2CCN(Cc3cnc4cc(Cl)c(=O)[nH]c4c3)CC2)cn1 [Example 138, 5-{4-[(7-chloro-6-oxo-5H-1,5-naphthyridin-3-yl)methyl]piperazin-1-yl}-N-methylpyridine-2-carboxamide]	0.0027	0.0021	–
CCc1cc2ncc(CN3CCN(c4ccc(C(=O)NC5CC5)nc4C#N)CC3)cc2[nH]c1=O [Example 139]	0.0015	0.00077	–
CNC(=O)c1ccc(N2CCN(Cc3cnc4cc(C5CC(F)(F)C5)c(=O)[nH]c4c3)CC2)cn1 [Example 140]	0.0043	0.0058	–
CCc1cc2nc(C#N)c(CN3CCN(c4ccc(C(=O)NC)nc4)CC3)cc2[nH]c1=O [Example 141]	0.0064	0.0041	–
O=C(NC1CC1)c1ccc(N2CCN(Cc3cnc4c(c3)[nH]c(=O)c3ccoc34)CC2)cn1 [Example 142]	0.0087	0.004	–
CCc1cc2c(OC)nc(CN3CCN(c4ccc(C(=O)NC)nc4)CC3)cc2[nH]c1=O [Example 144]	0.0041	0.002	–
O=C(NC1CC1)c1ccc(N2CCN(Cc3cnc4cc(Cl)c(=O)[nH]c4c3)CC2)cn1 [Example 147]	0.0029	0.0013	–
CNC(=O)c1ccc(N2CCN(Cc3cnc4c(C)c(Cl)c(=O)[nH]c4c3)CC2)cn1 [Example 148, 5-{4-[(7-chloro-8-methyl-6-oxo-5H-1,5-naphthyridin-3-yl)methyl]piperazin-1-yl}-N-methylpyridine-2-carboxamide]	0.002	0.0015	–
CNC(=O)c1ccc(N2CCN(Cc3cnc4cc(N5CCC5)c(=O)[nH]c4c3)CC2)cn1 [Example 149]	0.017	0.0094	–
CCc1cc2ccc(CN3CCN(c4ccc(C(=O)NC)nc4F)CC3)nc2[nH]c1=O [Example 150]	0.018	0.009	–
CNC(=O)c1ccc(N2CCN(Cc3cnc4c(C(F)F)c(C)c(=O)[nH]c4c3)CC2)cn1 [Example 151]	0.016	0.028	–
CNC(=O)c1ccc(C2=CCN(Cc3cnc4cc(Cl)c(=O)[nH]c4c3)CC2)c(F)n1 [Example 153]	0.00095	0.00074	–
Cc1c(Cl)c(=O)[nH]c2cc(CN3CCN(c4ccc(C(=O)NC5CC5)nc4)CC3)cnc12 [Example 154]	0.003	0.0016	–
CNC(=O)c1ccc(N2CCN(Cc3cnc4c(C)c(Cl)c(=O)[nH]c4c3)CC2)c(F)n1 [Example 156]	0.00068	0.00039	–
N#CC12CC(N3CCN(Cc4cnc5cc(Cl)c(=O)[nH]c5c4)CC3)(C1)C2 [Example 157]	0.061	0.041	–
O=C(NC1CC1)c1ccc(N2CCN(Cc3cnc4cc(C5CC5)c(=O)[nH]c4c3)CC2)c(F)n1 [Example 158]	0.0021	0.001	–
CNC(=O)c1ccc(N2CCN(Cc3cnc4c(Cl)c(Br)c(=O)[nH]c4c3)CC2)cn1 [Example 159]	0.0017	0.00072	–
CNC(=O)c1ccc(C2=CCN(Cc3cnc4cc(Cl)c(=O)[nH]c4c3)CC2)cn1 [Example 160]	0.0026	0.0021	–

More lines, main results first:

EC50 (DLD-1 BRCA2(−/−)) [µM]	EC50 [1] [µM]	Structure (SMILES)	EC50 (DLD-1 parental) [µM]
0.022	–	CCc1cc2ncc(CN3CCN(c4ccc(C(=O)NC)nc4)C[C@H]3C)cc2[nH]c1=O (racemic) [Example 161]	> 10
0.23	0.024	CCc1cc2ncc(CN3CCN(c4ccc(C(=O)NC)nc4)[C@@H]4C[C@@H]43)cc2[nH]c1=O (stereo in doubt) [Example 3A, rel-5-[(1R,6S)-5-[(7-ethyl-6-oxo-5H-1,5-naphthyridin-3-yl)methyl]-2,5-diazabicyclo[4.1.0]heptan-2-yl]-N-methylpyridine-2-carboxamide]	> 30
0.0032	0.0008	CCc1cc2ncc(CN3CCN(c4ccc(C(=O)NC)nc4)[C@H]4C[C@H]43)cc2[nH]c1=O (stereo in doubt) [Example 28]	33
0.0031	0.0013	CCc1cc2ncc(CN3CCN(c4ccc(C(=O)NC)c(F)c4)CC3)cc2[nH]c1=O [Example 7, 4-{4-[(7-ethyl-6-oxo-5H-1,5-naphthyridin-3-yl)methyl]piperazin-1-yl}-2-fluoro-N-methylbenzamide]	300
0.0035	0.0015	CCc1cc2ccc(CN3CCN(c4ccc(C#N)cn4)CC3)cc2[nH]c1=O [Example 9, 6-{4-[(3-ethyl-2-oxo-1H-quinolin-7-yl)methyl]piperazin-1-yl}pyridine-3-carbonitrile]	13
0.0026	0.00068	CNC(=O)c1ccc(N2CCN(Cc3ccc4c5c(c(=O)[nH]c4c3)CCC5)CC2)cn1 [Example 10, N-methyl-5-[4-({4-oxo-1H,2H,3H,5H-cyclopenta[c]quinolin-7-yl}methyl)piperazin-1-yl]pyridine-2-carboxamide]	1400
0.0028	0.0011	CNC(=O)c1ccc(N2CCN(Cc3ccc4c(c3)[nH]c(=O)c3ccoc34)CC2)cn1 [Example 11, N-methyl-5-[4-({4-oxo-5H-furo[3,2-c]quinolin-7-yl}methyl)piperazin-1-yl]pyridine-2-carboxamide]	440
0.0011	0.00062	CCc1cc2ncc(CN3CCN(c4ccc(C(=O)NC5CC5)nc4)CC3)cc2[nH]c1=O [Example 12, N-cyclopropyl-5-{4-[(7-ethyl-6-oxo-5H-1,5-naphthyridin-3-yl)methyl]piperazin-1-yl}pyridine-2-carboxamide]	51
0.0048	0.0042	CCc1cc2ncc(CN3CCN(c4cccnc4C#N)CC3)cc2[nH]c1=O [Example 128, 3-{4-[(7-ethyl-6-oxo-5H-1,5-naphthyridin-3-yl)methyl]piperazin-1-yl}pyridine-2-carbonitrile]	–
0.011	0.0062	Cc1cc2ncc(CN3CCN(c4cccnc4C#N)CC3)cc2[nH]c1=O [Example 131]	–
0.0067	0.0044	CCc1cc2ncc(CN3CCN(c4cc(F)ccc4C#N)CC3)cc2[nH]c1=O [Example 132]	–
0.0019	0.0011	CCc1cc2ncc(CN3CCN(c4ccc(C(=O)NC)c(F)c4C#N)CC3)cc2[nH]c1=O [Example 145]	–
0.0011	0.00051	O=C(NC1CC1)c1ccc(N2CCN(Cc3cnc4cc(Cl)c(=O)[nH]c4c3)CC2)c(F)n1 [Example 152]	–

Source: US11591331B2, “PARP1 inhibitors and uses thereof” (Xinthera, Inc., priority 2021, dated 2023)
